{
  "source": "patent US20150093449A1",
  "about": "“Method of Using Silicon Substituted Phosphates to Improve Healing of Bone and Soft Tissue” (priority 2009, published 2015)",
  "origin": "cited, not measured here",
  "test_system": "staph epidermis",
  "data": [
    {"substance": "silicon", "values": [
      {"measurement": "glycoprotein slime formation", "value": "inhibits"}
    ]}
  ]
}
